From the supplement of paper PMC11451515

Test system: P12-Ichikawa
Experiment: cell viability relative to DMSO control; higher = less cytotoxic
Conditions: 48 h
Method in brief: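 Viability, reported as a per-plate percentage of DMSO wells with cell-free wells as background, came from CellTiter-Glo One luminescence. Reading took place after 48 h at 37°C. Before that, NOMO1 or SEM (500 cells/well) or P12-Ichikawa (1000 cells/well) leukemia cells, adapted for at least four passages in each medium, were seeded in 1536-well plates (5 μl) and pin-dosed with library compounds in DMSO, 47 μM to 0.79 nM over 11 threefold points.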

[1] = HPLM + 10% dialyzed FBS, 0.000781 µM
[2] = HPLM + 10% dialyzed FBS, 0.00234 µM
[3] = HPLM + 10% dialyzed FBS, 0.00702 µM
[4] = HPLM + 10% dialyzed FBS, 0.0211 µM
[5] = HPLM + 10% dialyzed FBS, 0.0632 µM
[6] = HPLM + 10% dialyzed FBS, 0.19 µM
[7] = HPLM + 10% dialyzed FBS, 0.569 µM
[8] = HPLM + 10% dialyzed FBS, 1.71 µM
[9] = HPLM + 10% dialyzed FBS, 5.12 µM
[10] = HPLM + 10% dialyzed FBS, 15.4 µM
[11] = HPLM + 10% dialyzed FBS, 46.1 µM
[12] = RPMI 5 mM glucose + 10% FBS, 0.000781 µM
[13] = RPMI 5 mM glucose + 10% FBS, 0.00234 µM
[14] = RPMI 5 mM glucose + 10% FBS, 0.00702 µM
[15] = RPMI 5 mM glucose + 10% FBS, 0.0211 µM
[16] = RPMI 5 mM glucose + 10% FBS, 0.0632 µM
[17] = RPMI 5 mM glucose + 10% FBS, 0.19 µM
[18] = RPMI 5 mM glucose + 10% FBS, 0.569 µM
[19] = RPMI 5 mM glucose + 10% FBS, 1.71 µM
[20] = RPMI 5 mM glucose + 10% FBS, 5.12 µM
[21] = RPMI 5 mM glucose + 10% FBS, 15.4 µM
[22] = RPMI 5 mM glucose + 10% FBS, 46.1 µM
[23] = RPMI 5 mM glucose + 10% dialyzed FBS, 0.000781 µM
[24] = RPMI 5 mM glucose + 10% dialyzed FBS, 0.00234 µM
[25] = RPMI 5 mM glucose + 10% dialyzed FBS, 0.00702 µM
[26] = RPMI 5 mM glucose + 10% dialyzed FBS, 0.0211 µM
[27] = RPMI 5 mM glucose + 10% dialyzed FBS, 0.0632 µM
[28] = RPMI 5 mM glucose + 10% dialyzed FBS, 0.19 µM
[29] = RPMI 5 mM glucose + 10% dialyzed FBS, 0.569 µM
[30] = RPMI 5 mM glucose + 10% dialyzed FBS, 1.71 µM
[31] = RPMI 5 mM glucose + 10% dialyzed FBS, 5.12 µM
[32] = RPMI 5 mM glucose + 10% dialyzed FBS, 15.4 µM
[33] = RPMI 5 mM glucose + 10% dialyzed FBS, 46.1 µM

O.O.CCN1CCN(C(=O)N[C@H](C(=O)N[C@H]2[C@@H]3SC\C(=C(/N3C2=O)C(O)=O)CSC4=NN=N[N]4C)C5=CC=C(O)C=C5)C(=O)C1=O
cell viability [1]: 92.1%
cell viability [2]: 102%
cell viability [3]: 103%
cell viability [4]: 11.8%
cell viability [5]: 105%
cell viability [6]: 103%
cell viability [7]: 112%
cell viability [8]: 95.9%
cell viability [9]: 106%
cell viability [10]: 108%
cell viability [11]: 108%
cell viability [12]: 86.8%
cell viability [13]: 99.4%
cell viability [14]: 90.8%
cell viability [15]: 12.4%
cell viability [16]: 103%
cell viability [17]: 100%
cell viability [18]: 112%
cell viability [19]: 96.9%
cell viability [20]: 98.7%
cell viability [21]: 99.6%
cell viability [22]: 105%
cell viability [23]: 84.8%
cell viability [24]: 88%
cell viability [25]: 98.1%
cell viability [26]: 22.6%
cell viability [27]: 102%
cell viability [28]: 101%
cell viability [29]: 93.3%
cell viability [30]: 97.4%
cell viability [31]: 97.7%
cell viability [32]: 102%
cell viability [33]: 99.5%

CN(C)C(=O)C(CCN1CCC(O)(c2ccc(Cl)cc2)CC1)(c1ccccc1)c1ccccc1
cell viability [1]: 122%
cell viability [2]: 123%
cell viability [3]: 133%
cell viability [4]: 122%
cell viability [5]: 129%
cell viability [6]: 125%
cell viability [7]: 127%
cell viability [8]: 116%
cell viability [9]: 127%
cell viability [10]: 107%
cell viability [11]: 69.2%

Cc1noc(-c2ccc(CSCCC(=O)O)cc2)c1NC(=O)OC(C)c1ccccc1Cl (stereo not drawn)
cell viability [1]: 98.3%
cell viability [2]: 99.3%
cell viability [3]: 97.1%
cell viability [4]: 102%
cell viability [5]: 95.4%
cell viability [6]: 101%
cell viability [7]: 101%
cell viability [8]: 107%
cell viability [9]: 99%
cell viability [10]: 88.6%
cell viability [11]: 70.2%
cell viability [12]: 88.3%
cell viability [13]: 89.1%
cell viability [14]: 80.9%
cell viability [15]: 87.4%
cell viability [16]: 86.4%
cell viability [17]: 95.7%
cell viability [18]: 97.3%
cell viability [19]: 94.7%
cell viability [20]: 93.1%
cell viability [21]: 87.3%
cell viability [22]: 85.3%
cell viability [23]: 90.3%
cell viability [24]: 90%
cell viability [25]: 91.7%
cell viability [26]: 96.7%
cell viability [27]: 91.6%
cell viability [28]: 102%
cell viability [29]: 84.8%
cell viability [30]: 89.1%
cell viability [31]: 97.9%
cell viability [32]: 89.3%
cell viability [33]: 79.5%

NC/1=N/C(=O)N(/C=N1)[C@@H]2O[C@H](CO)[C@@H](O)[C@H]2O
cell viability [1]: 108%
cell viability [2]: 104%
cell viability [3]: 102%
cell viability [4]: 107%
cell viability [5]: 85.2%
cell viability [6]: 114%
cell viability [7]: 104%
cell viability [8]: 109%
cell viability [9]: 77%
cell viability [10]: 55.1%
cell viability [11]: 22.6%
cell viability [12]: 107%
cell viability [13]: 102%
cell viability [14]: 102%
cell viability [15]: 98.7%
cell viability [16]: 88.1%
cell viability [17]: 113%
cell viability [18]: 104%
cell viability [19]: 107%
cell viability [20]: 91.1%
cell viability [21]: 59%
cell viability [22]: 43.2%
cell viability [23]: 97.1%
cell viability [24]: 107%
cell viability [25]: 114%
cell viability [26]: 116%
cell viability [27]: 94.7%
cell viability [28]: 103%
cell viability [29]: 105%
cell viability [30]: 104%
cell viability [31]: 89.6%
cell viability [32]: 56%
cell viability [33]: 26.8%

C[C@@]1(C(=O)Nc2ccc(F)nc2)CCCN1c1nc(Nc2cc(C3CC3)[nH]n2)c2cccn2n1
cell viability [1]: 103%
cell viability [2]: 109%
cell viability [3]: 111%
cell viability [4]: 112%
cell viability [5]: 114%
cell viability [6]: 112%
cell viability [7]: 117%
cell viability [8]: 114%
cell viability [9]: 11.6%
cell viability [10]: 15.1%
cell viability [11]: 18.6%
cell viability [12]: 119%
cell viability [13]: 116%
cell viability [14]: 130%
cell viability [15]: 113%
cell viability [16]: 124%
cell viability [17]: 120%
cell viability [18]: 124%
cell viability [19]: 116%
cell viability [20]: 21.9%
cell viability [21]: 23.2%
cell viability [22]: 27.5%
cell viability [23]: 107%
cell viability [24]: 122%
cell viability [25]: 135%
cell viability [26]: 121%
cell viability [27]: 129%
cell viability [28]: 126%
cell viability [29]: 131%
cell viability [30]: 121%
cell viability [31]: 32.2%
cell viability [32]: 41%
cell viability [33]: 43%

CC(O)C1C2C(C)\C(=C(/N2C1=O)C(O)=O)SC3CNC(C3)C(=O)N(C)C (stereo not drawn)
cell viability [1]: 84%
cell viability [2]: 82.1%
cell viability [3]: 86.8%
cell viability [4]: 88.3%
cell viability [5]: 93.2%
cell viability [6]: 92.9%
cell viability [7]: 99.6%
cell viability [8]: 96.5%
cell viability [9]: 90.4%
cell viability [10]: 92.8%
cell viability [11]: 88.1%
cell viability [12]: 77.1%
cell viability [13]: 78.2%
cell viability [14]: 79.4%
cell viability [15]: 81.7%
cell viability [16]: 82.3%
cell viability [17]: 85.5%
cell viability [18]: 82.7%
cell viability [19]: 77.6%
cell viability [20]: 84.7%
cell viability [21]: 88.2%
cell viability [22]: 85.6%
cell viability [23]: 85.7%
cell viability [24]: 80%
cell viability [25]: 85.8%
cell viability [26]: 88%
cell viability [27]: 88.8%
cell viability [28]: 89.2%
cell viability [29]: 86.2%
cell viability [30]: 86.2%
cell viability [31]: 86.5%
cell viability [32]: 88.2%
cell viability [33]: 95.5%

Nc1nc(Cl)nc2c1ncn2[C@@H]1O[C@H](CO)[C@@H](O)[C@@H]1F
cell viability [1]: 18.2%
cell viability [2]: 55.1%
cell viability [3]: 15.7%
cell viability [4]: 16.3%
cell viability [5]: 18.8%
cell viability [6]: 15.4%
cell viability [7]: 15.2%
cell viability [8]: 11.8%
cell viability [9]: 13.5%
cell viability [10]: 10.6%
cell viability [11]: 8.95%
cell viability [12]: 32.2%
cell viability [13]: 50%
cell viability [14]: 15.6%
cell viability [15]: 14.8%
cell viability [16]: 16.3%
cell viability [17]: 13.6%
cell viability [18]: 10.6%
cell viability [19]: 9.04%
cell viability [20]: 8.02%
cell viability [21]: 9.03%
cell viability [22]: 5.68%
cell viability [23]: 28.4%
cell viability [24]: 37.2%
cell viability [25]: 24.4%
cell viability [26]: 23.5%
cell viability [27]: 24.7%
cell viability [28]: 24.6%
cell viability [29]: 21.2%
cell viability [30]: 24.3%
cell viability [31]: 19%
cell viability [32]: 20.3%
cell viability [33]: 17.5%

CC(C)C[C@H](NC(=O)[C@@H](O)[C@H](N)Cc1ccccc1)C(=O)O
cell viability [23]: 116%
cell viability [24]: 130%
cell viability [25]: 124%
cell viability [26]: 130%
cell viability [27]: 130%
cell viability [28]: 111%
cell viability [29]: 120%
cell viability [30]: 115%
cell viability [31]: 123%
cell viability [32]: 104%
cell viability [33]: 32%

CNC(=O)[C@H](CC/1=C/N=C\2/C=C\C\C=C12)NC(=O)[C@H](CC(C)C)CC(=O)NO
cell viability [1]: 116%
cell viability [2]: 108%
cell viability [3]: 103%
cell viability [4]: 99.5%
cell viability [5]: 116%
cell viability [6]: 111%
cell viability [7]: 116%
cell viability [8]: 105%
cell viability [9]: 108%
cell viability [10]: 30.9%
cell viability [11]: 29.8%
cell viability [12]: 99.5%
cell viability [13]: 107%
cell viability [14]: 98%
cell viability [15]: 102%
cell viability [16]: 108%
cell viability [17]: 108%
cell viability [18]: 113%
cell viability [19]: 106%
cell viability [20]: 97.9%
cell viability [21]: 28.4%
cell viability [22]: 33.3%
cell viability [23]: 105%
cell viability [24]: 107%
cell viability [25]: 107%
cell viability [26]: 112%
cell viability [27]: 115%
cell viability [28]: 114%
cell viability [29]: 114%
cell viability [30]: 105%
cell viability [31]: 107%
cell viability [32]: 24.7%
cell viability [33]: 32.1%
